Consider 2 compounds from ChEMBL document CHEMBL4507276 (2021).

Data set [1] deals with Cyclin-dependent kinase-like 1 (Homo sapiens) (UniProt Q00532). The following applies: Compound concentration 1000.0 nM.
For data set [2], the target named is MAP kinase-activated protein kinase 2 (Homo sapiens) (UniProt P49137). The following applies: Compound concentration 1000.0 nM.
Data set [3] deals with 5-hydroxytryptamine receptor 6 (Homo sapiens) (UniProt P50406). As to conditions: Compound concentration 10.0 uM; call rule not given here.
Data set [4] deals with Alpha-2C adrenergic receptor (Homo sapiens) (UniProt P18825). As to conditions: Compound concentration 10.0 uM.
Chain of Alpha-2C adrenergic receptor (Homo sapiens) (P18825 whole entry): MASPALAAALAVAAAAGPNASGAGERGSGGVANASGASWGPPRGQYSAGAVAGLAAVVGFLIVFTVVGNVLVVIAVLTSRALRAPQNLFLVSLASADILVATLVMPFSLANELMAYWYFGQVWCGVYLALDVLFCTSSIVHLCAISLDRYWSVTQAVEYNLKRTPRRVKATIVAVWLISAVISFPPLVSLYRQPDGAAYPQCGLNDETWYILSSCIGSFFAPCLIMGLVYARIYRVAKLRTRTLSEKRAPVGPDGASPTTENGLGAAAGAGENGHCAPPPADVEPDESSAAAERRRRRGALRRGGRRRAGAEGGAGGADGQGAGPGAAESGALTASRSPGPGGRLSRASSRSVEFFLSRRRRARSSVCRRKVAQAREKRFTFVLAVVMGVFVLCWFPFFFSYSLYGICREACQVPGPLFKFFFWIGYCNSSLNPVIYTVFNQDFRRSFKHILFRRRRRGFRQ
In data set [5] the target is Arachidonate 5-lipoxygenase-activating protein (Homo sapiens, UniProt P20292). The data set can be described thus: Functional inhibition in mouse whole blood. The data set is classed as tissue-based. As to conditions: target entry is the homologue from another species.
Chain of Arachidonate 5-lipoxygenase-activating protein (P20292 whole entry): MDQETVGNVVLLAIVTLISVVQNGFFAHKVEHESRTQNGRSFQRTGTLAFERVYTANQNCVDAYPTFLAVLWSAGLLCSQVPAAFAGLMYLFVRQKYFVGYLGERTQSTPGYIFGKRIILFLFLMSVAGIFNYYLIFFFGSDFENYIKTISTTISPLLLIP
The target in data set [6] is 5-hydroxytryptamine receptor 7 (Homo sapiens) (UniProt P34969). Nature of the data set: 5HT7/H Cerep selectivity data (BI). The following applies: Compound concentration 20.0 uM.
The target of data set [7] is Type-2 angiotensin II receptor (Homo sapiens) (UniProt P50052). The data set can be described thus: AT2/H Cerep selectivity data (BI). The following applies: Compound concentration 20.0 uM.
The target of data set [8] is Leukotriene B4 receptor 1 (Homo sapiens) (UniProt Q15722). The data set can be described thus: BLT1/H Cerep selectivity data (BI). The following applies: Compound concentration 20.0 uM.
Data set [9] concerns the target High affinity choline transporter 1 (Homo sapiens) (UniProt Q9GZV3). Nature of the data set: CHT1/H Cerep selectivity data (BI). The following applies: Compound concentration 20.0 uM.
Data set [10] concerns the target Sodium- and chloride-dependent GABA transporter 1 (Rattus norvegicus) (UniProt P23978). The data set can be described thus: GABATRANS/R Cerep selectivity data (BI). As to conditions: Compound concentration 20.0 uM.
For data set [11], the target named is T1, Muscarinic acetylcholine receptor M1 (Homo sapiens) (UniProt P11229).
T1 sequence (whole entry): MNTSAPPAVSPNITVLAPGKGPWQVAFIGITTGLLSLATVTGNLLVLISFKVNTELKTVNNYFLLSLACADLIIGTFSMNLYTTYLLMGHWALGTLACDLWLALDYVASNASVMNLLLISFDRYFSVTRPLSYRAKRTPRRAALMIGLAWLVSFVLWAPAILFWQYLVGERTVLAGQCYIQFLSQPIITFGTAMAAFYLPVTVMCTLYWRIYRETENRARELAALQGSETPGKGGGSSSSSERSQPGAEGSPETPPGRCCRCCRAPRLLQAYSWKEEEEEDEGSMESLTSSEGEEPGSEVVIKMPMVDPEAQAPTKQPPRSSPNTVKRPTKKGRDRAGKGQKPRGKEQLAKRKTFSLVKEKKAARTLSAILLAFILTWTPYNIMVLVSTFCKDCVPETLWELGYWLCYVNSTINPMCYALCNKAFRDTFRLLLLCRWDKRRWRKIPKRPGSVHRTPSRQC
Nature of the data set: M1/H Cerep selectivity data (BI). As to conditions: Compound concentration 20.0 uM.

Data set [12] has as its target Melanocyte-stimulating hormone receptor (Mus musculus) (UniProt Q01727). The data set can be described thus: MC1_AGON Cerep selectivity data (BI). The following applies: filed as agonist, Compound concentration 20.0 uM.
Data set [13] has as its target Vasopressin V1a receptor (Homo sapiens) (UniProt P37288). The data set can be described thus: V1A/HUM Cerep selectivity data (BI). The following applies: Compound concentration 20.0 uM.
The target of data set [14] is 5-hydroxytryptamine receptor 2B (Homo sapiens) (UniProt P41595). The data set can be described thus: 5HT2B/HU Eurofins-Panlabs selectivity data (BI). As to conditions: Compound concentration 10.0 uM.
Chain of 5-hydroxytryptamine receptor 2B (Homo sapiens) (P41595 whole entry): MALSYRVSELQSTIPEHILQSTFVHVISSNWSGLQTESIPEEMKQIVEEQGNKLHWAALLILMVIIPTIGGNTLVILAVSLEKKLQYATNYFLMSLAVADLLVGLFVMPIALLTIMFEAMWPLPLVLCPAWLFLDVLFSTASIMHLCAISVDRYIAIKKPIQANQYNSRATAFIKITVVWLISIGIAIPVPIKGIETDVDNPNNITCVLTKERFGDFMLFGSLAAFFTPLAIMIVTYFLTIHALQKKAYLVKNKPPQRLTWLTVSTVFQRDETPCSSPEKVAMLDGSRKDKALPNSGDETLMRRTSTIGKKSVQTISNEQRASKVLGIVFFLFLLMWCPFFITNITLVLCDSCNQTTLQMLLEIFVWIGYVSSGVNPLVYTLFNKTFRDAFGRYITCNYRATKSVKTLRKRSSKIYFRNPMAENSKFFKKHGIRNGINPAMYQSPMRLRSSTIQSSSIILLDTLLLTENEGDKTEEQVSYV
For data set [15], the target named is B2 bradykinin receptor (Homo sapiens) (UniProt P30411). Nature of the data set: B2/H Eurofins-Panlabs selectivity data (BI). The following applies: filed as antagonist, Compound concentration 10.0 uM.
Data set [16] deals with hERG (KCNH2) (Homo sapiens, UniProt Q12809). The data set can be described thus: K+/HERG Eurofins-Panlabs selectivity data (BI). As to conditions: compound concentration 10 uM, read-out: % Ctrl.
Chain of hERG (KCNH2) (Q12809 whole entry): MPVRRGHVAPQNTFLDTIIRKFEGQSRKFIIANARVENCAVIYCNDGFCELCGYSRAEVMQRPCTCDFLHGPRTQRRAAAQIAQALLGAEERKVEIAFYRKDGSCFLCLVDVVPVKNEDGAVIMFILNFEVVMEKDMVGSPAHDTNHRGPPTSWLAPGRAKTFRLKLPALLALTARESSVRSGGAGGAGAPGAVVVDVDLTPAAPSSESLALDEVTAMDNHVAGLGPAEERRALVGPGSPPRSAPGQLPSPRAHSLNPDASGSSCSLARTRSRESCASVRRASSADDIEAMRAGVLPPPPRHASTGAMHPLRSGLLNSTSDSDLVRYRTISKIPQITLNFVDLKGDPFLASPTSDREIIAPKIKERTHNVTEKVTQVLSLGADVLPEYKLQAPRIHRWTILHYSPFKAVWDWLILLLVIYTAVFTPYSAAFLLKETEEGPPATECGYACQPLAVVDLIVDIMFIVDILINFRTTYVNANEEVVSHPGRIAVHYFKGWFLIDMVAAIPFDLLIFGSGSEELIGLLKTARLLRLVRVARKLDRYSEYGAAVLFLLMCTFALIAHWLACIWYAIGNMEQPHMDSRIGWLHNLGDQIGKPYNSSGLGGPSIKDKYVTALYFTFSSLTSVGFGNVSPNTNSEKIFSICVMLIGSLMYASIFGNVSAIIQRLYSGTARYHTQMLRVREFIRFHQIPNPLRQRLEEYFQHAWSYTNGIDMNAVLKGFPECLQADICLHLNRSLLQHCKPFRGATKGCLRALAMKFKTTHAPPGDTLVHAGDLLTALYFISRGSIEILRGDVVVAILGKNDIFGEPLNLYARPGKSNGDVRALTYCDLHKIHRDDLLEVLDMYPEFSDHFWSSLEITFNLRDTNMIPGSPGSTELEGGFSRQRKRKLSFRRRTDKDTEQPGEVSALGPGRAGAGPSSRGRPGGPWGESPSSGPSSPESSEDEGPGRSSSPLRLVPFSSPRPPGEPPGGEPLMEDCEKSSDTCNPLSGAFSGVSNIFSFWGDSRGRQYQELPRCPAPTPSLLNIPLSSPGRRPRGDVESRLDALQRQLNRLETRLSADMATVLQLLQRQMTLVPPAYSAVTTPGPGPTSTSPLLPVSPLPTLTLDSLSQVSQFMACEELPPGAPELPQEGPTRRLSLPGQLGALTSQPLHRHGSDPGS
Data set [17] has as its target T1, Muscarinic acetylcholine receptor M1 (Homo sapiens). Nature of the data set: M1/HU Eurofins-Panlabs selectivity data (BI). The following applies: Compound concentration 10.0 uM.
Data set [18] has as its target Melatonin receptor type 1A (Homo sapiens) (UniProt P48039). The data set can be described thus: MT1/H Eurofins-Panlabs selectivity data (BI). The following applies: Compound concentration 10.0 uM.
Data set [19] addresses Sodium-dependent noradrenaline transporter (Homo sapiens) (UniProt P23975). Nature of the data set: NETRANS/H Eurofins-Panlabs selectivity data (BI). As to conditions: Compound concentration 10.0 uM.
Data set [20] addresses Substance-P receptor (Homo sapiens) (UniProt P25103). Nature of the data set: NK1/HU Eurofins-Panlabs selectivity data (BI). As to conditions: Compound concentration 10.0 uM.
The target in data set [21] is T2, Calcium/calmodulin-dependent protein kinase type IV (Homo sapiens) (UniProt Q16566).
T2 sequence (whole entry): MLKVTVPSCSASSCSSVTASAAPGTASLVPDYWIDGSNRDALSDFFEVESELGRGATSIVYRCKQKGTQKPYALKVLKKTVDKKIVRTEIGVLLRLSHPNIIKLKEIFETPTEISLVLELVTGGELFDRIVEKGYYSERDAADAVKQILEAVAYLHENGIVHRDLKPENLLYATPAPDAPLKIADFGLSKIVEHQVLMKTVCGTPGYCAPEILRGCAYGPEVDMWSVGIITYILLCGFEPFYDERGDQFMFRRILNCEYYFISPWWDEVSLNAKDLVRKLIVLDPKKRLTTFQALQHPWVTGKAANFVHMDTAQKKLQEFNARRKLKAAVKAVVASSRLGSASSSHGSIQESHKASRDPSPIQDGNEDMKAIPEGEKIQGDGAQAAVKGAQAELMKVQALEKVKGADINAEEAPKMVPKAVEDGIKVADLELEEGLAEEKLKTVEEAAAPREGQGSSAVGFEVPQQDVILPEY
The data set can be described thus: CAMK4 Invitrogen selectivity data (BI). As to conditions: Compound concentration 3.0 uM.

The target in data set [22] is Cyclin-dependent kinase 9 (Homo sapiens) (UniProt P50750). The data set can be described thus: CDK9CYCLIN Invitrogen selectivity data (BI). The following applies: Compound concentration 3.0 uM.
Data set [23] addresses CDK9/Cyclin K (Homo sapiens) (UniProt P50750+O75909). The data set can be described thus: CDK9_CYCLINK Invitrogen selectivity data (BI). Type of data set: protein-complex assay. As to conditions: Compound concentration 3.0 uM.
Data set [24] addresses Epithelial discoidin domain-containing receptor 1 (Homo sapiens) (UniProt Q08345). Nature of the data set: DDR1 Invitrogen selectivity data (BI). The following applies: Compound concentration 3.0 uM.
In data set [25] the target is Dual specificity tyrosine-phosphorylation-regulated kinase 3 (Homo sapiens) (UniProt O43781). The data set can be described thus: DYRK3 Invitrogen selectivity data (BI). The following applies: Compound concentration 3.0 uM.
For data set [26], the target named is Serine/threonine-protein kinase Nek7 (Homo sapiens) (UniProt Q8TDX7). The data set can be described thus: NEK7 Invitrogen selectivity data (BI). The following applies: Compound concentration 3.0 uM.
Data set [27] deals with Platelet-derived growth factor receptor alpha (Homo sapiens), P16234 [T674I]. The data set can be described thus: PDGFRA T674I Invitrogen selectivity data (BI). The following applies: Compound concentration 3.0 uM.
Chain of Platelet-derived growth factor receptor alpha (Homo sapiens), P16234 [T674I] (P16234 whole entry T674I): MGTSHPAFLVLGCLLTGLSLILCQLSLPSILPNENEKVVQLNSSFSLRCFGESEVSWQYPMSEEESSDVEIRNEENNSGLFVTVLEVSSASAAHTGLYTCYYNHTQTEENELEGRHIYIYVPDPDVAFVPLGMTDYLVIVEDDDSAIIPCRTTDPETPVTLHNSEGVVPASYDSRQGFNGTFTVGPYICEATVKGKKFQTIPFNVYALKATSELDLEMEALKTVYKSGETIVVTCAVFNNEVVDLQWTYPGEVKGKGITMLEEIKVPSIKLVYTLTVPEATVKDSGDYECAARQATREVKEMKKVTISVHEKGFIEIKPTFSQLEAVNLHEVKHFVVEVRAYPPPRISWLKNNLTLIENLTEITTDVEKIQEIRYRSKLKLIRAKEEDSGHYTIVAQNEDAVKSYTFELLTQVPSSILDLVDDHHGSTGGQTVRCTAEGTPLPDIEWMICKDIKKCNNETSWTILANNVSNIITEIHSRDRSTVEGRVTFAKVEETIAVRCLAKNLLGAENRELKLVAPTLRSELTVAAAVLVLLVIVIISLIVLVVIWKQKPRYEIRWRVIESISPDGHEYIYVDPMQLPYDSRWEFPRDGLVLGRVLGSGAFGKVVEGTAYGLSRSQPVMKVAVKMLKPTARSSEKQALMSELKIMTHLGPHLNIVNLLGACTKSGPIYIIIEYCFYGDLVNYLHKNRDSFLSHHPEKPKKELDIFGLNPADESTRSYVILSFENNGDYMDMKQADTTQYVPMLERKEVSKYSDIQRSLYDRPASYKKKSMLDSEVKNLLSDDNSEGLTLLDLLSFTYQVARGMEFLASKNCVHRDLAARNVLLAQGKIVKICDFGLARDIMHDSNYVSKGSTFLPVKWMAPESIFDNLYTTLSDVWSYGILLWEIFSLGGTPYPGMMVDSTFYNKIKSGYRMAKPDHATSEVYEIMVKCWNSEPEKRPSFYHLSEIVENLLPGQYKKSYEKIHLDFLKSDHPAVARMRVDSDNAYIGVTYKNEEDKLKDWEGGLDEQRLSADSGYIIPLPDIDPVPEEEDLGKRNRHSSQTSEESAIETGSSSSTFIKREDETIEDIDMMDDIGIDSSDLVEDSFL
For data set [28], the target named is Platelet-derived growth factor receptor beta (Homo sapiens) (UniProt P09619). The data set can be described thus: PDGFRB Invitrogen selectivity data (BI). The following applies: Compound concentration 3.0 uM.
For data set [29], the target named is RAF proto-oncogene serine/threonine-protein kinase (Homo sapiens) (UniProt P04049). Nature of the data set: RAF1_Y_D Invitrogen selectivity data (BI). As to conditions: Compound concentration 3.0 uM.
Data set [30] addresses Rho-associated protein kinase 2 (Homo sapiens) (UniProt O75116). Nature of the data set: ROCK2 Invitrogen selectivity data (BI). As to conditions: Compound concentration 3.0 uM.
The target in data set [31] is Ribosomal protein S6 kinase beta-1 (Homo sapiens) (UniProt P23443). The data set can be described thus: RPS6KB1 Invitrogen selectivity data (BI). As to conditions: Compound concentration 3.0 uM.

Chain of Substance-P receptor (Homo sapiens) (P25103 whole entry): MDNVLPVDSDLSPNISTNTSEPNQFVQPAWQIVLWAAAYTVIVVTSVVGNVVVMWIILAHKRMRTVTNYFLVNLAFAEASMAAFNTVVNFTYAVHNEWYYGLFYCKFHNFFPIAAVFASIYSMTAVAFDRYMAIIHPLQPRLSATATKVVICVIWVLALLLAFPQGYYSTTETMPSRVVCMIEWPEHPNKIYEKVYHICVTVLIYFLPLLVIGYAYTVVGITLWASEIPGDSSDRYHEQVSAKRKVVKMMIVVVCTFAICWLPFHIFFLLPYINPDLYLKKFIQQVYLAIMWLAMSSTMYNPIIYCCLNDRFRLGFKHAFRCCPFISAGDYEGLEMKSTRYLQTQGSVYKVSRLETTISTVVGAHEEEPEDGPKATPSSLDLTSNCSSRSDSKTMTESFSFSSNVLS
Chain of Epithelial discoidin domain-containing receptor 1 (Homo sapiens) (Q08345 whole entry, the tested form may be a part): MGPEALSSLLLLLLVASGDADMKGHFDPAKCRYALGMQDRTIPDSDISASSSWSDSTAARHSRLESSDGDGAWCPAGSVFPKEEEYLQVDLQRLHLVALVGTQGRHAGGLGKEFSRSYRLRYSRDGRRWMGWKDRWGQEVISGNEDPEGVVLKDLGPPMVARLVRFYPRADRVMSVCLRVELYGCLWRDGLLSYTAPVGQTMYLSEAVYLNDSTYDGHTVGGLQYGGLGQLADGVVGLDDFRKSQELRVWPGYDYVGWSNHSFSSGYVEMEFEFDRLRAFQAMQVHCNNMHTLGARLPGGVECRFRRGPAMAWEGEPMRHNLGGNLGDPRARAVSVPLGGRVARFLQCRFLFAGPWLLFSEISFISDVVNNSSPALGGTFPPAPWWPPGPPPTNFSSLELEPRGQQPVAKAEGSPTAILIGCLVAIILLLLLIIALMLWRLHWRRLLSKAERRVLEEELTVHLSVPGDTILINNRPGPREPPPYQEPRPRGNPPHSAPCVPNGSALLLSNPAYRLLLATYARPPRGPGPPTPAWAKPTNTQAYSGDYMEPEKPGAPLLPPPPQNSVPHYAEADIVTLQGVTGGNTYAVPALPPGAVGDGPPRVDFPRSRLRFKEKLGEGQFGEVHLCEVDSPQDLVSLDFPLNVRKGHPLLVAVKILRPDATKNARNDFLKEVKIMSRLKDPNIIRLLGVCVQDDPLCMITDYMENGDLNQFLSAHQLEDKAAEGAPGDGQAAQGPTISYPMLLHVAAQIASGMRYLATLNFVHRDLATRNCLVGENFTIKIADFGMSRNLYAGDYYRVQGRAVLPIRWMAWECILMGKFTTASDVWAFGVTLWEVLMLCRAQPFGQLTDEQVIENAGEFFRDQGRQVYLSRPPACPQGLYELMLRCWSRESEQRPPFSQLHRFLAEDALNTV
Chain of Melatonin receptor type 1A (Homo sapiens) (P48039 whole entry): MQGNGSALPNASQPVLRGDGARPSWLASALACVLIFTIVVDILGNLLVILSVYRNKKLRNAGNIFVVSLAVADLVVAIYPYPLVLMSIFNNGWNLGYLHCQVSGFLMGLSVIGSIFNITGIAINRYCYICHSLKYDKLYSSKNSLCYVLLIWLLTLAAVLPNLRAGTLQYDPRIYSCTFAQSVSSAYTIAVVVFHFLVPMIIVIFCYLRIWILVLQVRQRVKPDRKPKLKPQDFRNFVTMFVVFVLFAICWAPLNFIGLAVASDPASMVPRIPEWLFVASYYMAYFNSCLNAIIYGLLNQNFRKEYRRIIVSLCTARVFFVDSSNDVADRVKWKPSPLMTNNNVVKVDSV

Consider `CN(C)C(=O)Cn1cc(-c2nc(C3(c4ccc(-c5cnc(N)nc5)cc4)CC3)no2)cn1` [BI 0153], for which the residual activity in data set [1] was 100%; in data set [2], 99%. Further, the inhibition in data set [3] is -7.48%; in data set [4], 4.1%.

`CN(C)C(=O)Cn1cc(-c2nc([C@@](C)(c3ccc(-c4cnc(N)nc4)cc3)C3CC3)no2)cn1` [BI 665915] came in with a half-inhibitory concentration (IC50) in data set [5] of 4.8 µM. Also, the residual activity in data set [6] was 104%; in [7] it was 98%; in data set [8] it was 100%; in data set [9], 101%; in data set [10], 96%; in [11], 99%. For the same compound, the residual activity in data set [12] is 101%; in [13] it was 50%; in data set [14], 97%; in data set [15] it was 123%; in [17], 90%; in data set [18], 96%. Also, the residual activity in data set [19] was 103%; in data set [20], 104%; in [21], 86%; in [22], 102%; in [23], 96%; in [24], 99%. Also, the residual activity in [25] is 102%; in [26], 99%; in data set [27] it was 87%; in data set [28] it was 94.5%; in data set [29], 98%; in data set [30], 102%. In addition, in data set [31], the residual activity is 97.5%. Besides, the activity at 10 µM in data set [16] is listed as 90% (not active).
